# Data published in the Kinase Knowledgebase extract (Sharma et al. 2016).
# Target: CDK2 (human) (UniProt P24941)
# Assay: Enzyme Assay
row,IC50,SMILES
1,< 1000 nM,Cc1[nH]c(-c2n[nH]cc2NC(=O)c2onc3ccccc23)nc1C(F)(F)F
2,< 1000 nM,Cc1[nH]c(-c2n[nH]cc2NC(=O)C(C#N)C2CC2)nc1C(F)(F)F (stereo not drawn)
3,< 1000 nM,Cc1[nH]c(-c2n[nH]cc2NC(=O)c2cccc3c2OCC3)nc1C(F)(F)F
4,< 1000 nM,COc1cccc(Cl)c1C(=O)Nc1c[nH]nc1-c1nc(C(F)(F)F)c(C)[nH]1
5,< 1000 nM,COc1ccc(S(C)(=O)=O)cc1C(=O)Nc1c[nH]nc1-c1nc(C(F)(F)F)c(C)[nH]1
6,< 1000 nM,Cc1[nH]c(-c2n[nH]cc2NC(=O)c2cc(CN3CCOCC3)c(C)o2)nc1C(F)(F)F
7,< 1000 nM,Cc1[nH]c(-c2n[nH]cc2NC(=O)c2ccco2)nc1C(F)(F)F
8,< 1000 nM,Cc1[nH]c(-c2n[nH]cc2NC(=O)c2c(F)cc(F)cc2F)nc1C(F)(F)F
9,< 1000 nM,Cc1[nH]c(-c2n[nH]cc2NC(=O)c2ccc3c(c2)OCC3)nc1C(F)(F)F
10,< 1000 nM,CCOc1ccccc1C(=O)Nc1c[nH]nc1-c1nc(C(F)(F)F)c(C)[nH]1
11,< 1000 nM,Cc1cc(C(=O)Nc2c[nH]nc2-c2nc(C(F)(F)F)c(C)[nH]2)no1
12,< 1000 nM,COc1ccc(F)cc1C(=O)Nc1c[nH]nc1-c1nc(C(F)(F)F)c(C)[nH]1
13,< 1000 nM,Cc1[nH]c(-c2n[nH]cc2NC(=O)CC2CC2)nc1C(F)(F)F
